Measurements from patent publication US20060100188A1, “Treatment methods” (priority 2004, published 2006).

Tests used:
[1] = test system: LOX human melanoma cells (low MGMT level); test: Colony formation assay, LOX cells; type: cell-based
Description: (§1) As detailed below, DAOY human glioma cells (high MGMT level), A375 human melanoma cells (high MGMT level), and LOX human melanoma cells (low MGMT level) in in vitro colony formation assays were treated with different dosing schedules of TMZ. In brief, sub-confluent plates containing cells (DAOY, A375, or LOX) were trypsinized, then rinsed and suspended in appropriate culture medium before seeding in 6-well plates. Cells were incubated for 18-24 hours at 37° C. to allow cells to attach. Graded concentrations of TMZ or equivalent volumes of diluents were added in triplicate. Each pulse of TMZ lasted for 24 hours. For example, cells receiving continuous daily dosing of TMZ were treated with TMZ-containing medium every 24 hours throughout the cycle. Following the last pulse of TMZ in a cycle, TMZ-containing medium was removed and replaced with fresh medium without TMZ for the rest of the incubation period. Resulting colonies were stained with Crystal Violet solution and quantified using ImagePro plus software (Empire Imaging Systems, Inc. Asbury, N.J.).
In the 4-day cycle, illustrated in FIG. 3A, TMZ was administered according to one of two different dosing schedules: (i) continuous daily dosing (Day 1-4); or (ii) single pulse dosing (Day 1); where the total amount of TMZ administered was 0, 16, 31, 62, or 124 μg.
In the 8-day cycle, illustrated in FIG. 3B, TMZ was administered according to one of three different dosing schedules: (i) continuous daily dosing (Day 1-8); (ii) dosing for 2 consecutive days (Day 1-2); or (ii) intermittent dosing for 2 days (Day 1, Day 5); where the total amount of TMZ administered was 0, 31, 62, 124, or 248 μg.

[2] = test system: LOX human melanoma xenograft tumors; test: LOX human melanoma xenograft tumor model; type: in vivo, SCID mice; details: for % Inhibition compared to tumor treated with vehicle: 12-day cycle; for TGI: SCID mice, intermediate dose 72 mg/kg total
Description: (§2) In brief, female athymic nude mice or female SCID mice (4-6 week old) from Charles River Laboratories were maintained in a VAF-barrier facility. Animal procedures were performed in accordance with the rules set forth in the N.I.H. guide for the care and use of laboratory animals.
(§3) DAOY human glioma cells (5×10^6), LOX human melanoma cells (5×10^5), and A375 human melanoma cells (5×10^6) were inoculated subcutaneously in the right flank of the animal (LOX in SCID mice; DAOY and A375 in nude mice). To facilitate in vivo growth, Matrigel was mixed with DAOY and A375 cells (50%) before inoculation. When tumor volumes were approximately 100 mm^3, animals were randomized and grouped (n=10). Tumor volumes and body weight were measured twice weekly using Labcat™ computer application (Innovative Programing Associates, N.J.). Tumor volumes were calculated by the formula (W×L×H)×π×⅙.
(§4) TMZ was administered by intraperitoneal injections with 20% HPβCD (containing 1% DMSO) as vehicle. Mice bearing xenograft tumors of DAOY human glioma cells, a high MGMT level cell line, were treated with one of three different dosing schedules. In a 15-day cycle, under same total dose levels, mice received one of the following TMZ treatments: (i) day 1 through day 15; (ii) day 1 through day 5; or (iii) intermittently on day 1, 4, 7, 10, and 13. For all dosing schedules, three different dose levels (180, 270, and 405 mg/kg total) were used.
Mice bearing xenograft tumors of LOX human melanoma cells, a low MGMT level cell line, were treated with TMZ using two different schedules. The same total dose was administered evenly divided over the course of either: (i) 4 or (ii) 12 days. TMZ was administered through intraperitoneal injection using cumulative total dose levels of 36, 72 or 144 mg/kg.
The efficacy of TMZ was schedule dependent, with greater efficacy seen when dosing for 4 consecutive days.

[3] = test system: A375 human melanoma xenograft tumors; test: A375 human melanoma xenograft tumor model; type: in vivo, nude mice; details: 15-day cycle
Description: as §2, §3, §4
Mice bearing xenograft tumors of A375 human melanoma cells, a high MGMT level cell line, were treated with three different dosing schedules. Similar to the schedules used for the DAOY model, in a 15-day cycle, under same total dose levels, mice received one of the following TMZ treatments: (i) day 1 through day 15; (ii) day 1 through day 5; or (iii) intermittently on day 1, 4, 7, 10, and 13. For all dosing schedules, three different dose levels (180, 270, and 405 mg/kg total) were used.

[4] = test system: DAOY human glioma xenograft tumors; test: DAOY human glioma xenograft tumor model; type: in vivo, nude mice; details: two 15-day cycles
Description: as §2, §3, §4
FIG. 5A illustrates the mean tumor growth curves of DAOY human glioma xenograft tumors following TMZ treatment for two consecutive 15-day cycles of continuous daily dosing (Day 1-15 (first cycle), Day 16-30 (second cycle)); where the total dose of TMZ administered was 0, 360, 540, or 810 mg per kg (mpk). FIG. 5B illustrates the mean tumor growth curves of DAOY human glioma xenograft tumors following TMZ treatment for two consecutive 15-day cycles of dosing for 5 consecutive days (Day 1-5 (first cycle); Day 16-20 (second cycle)); where the total dose of TMZ administered was 0, 360, 540, or 810 mpk. FIG. 5C illustrates mean tumor growth curves of DAOY human glioma xenograft tumors following TMZ treatment for two consecutive 15-day cycles of intermittent dosing for 5 days (Day 1, 4, 7, 10, 13 (first cycle); Day 16, 19, 22, 25, 28 (second cycle)); where the total dose of TMZ administered was 0, 360, 540, or 810 mpk.

[5] = test system: A375 human melanoma cells (high MGMT level); test: Colony formation assay, A375 cells; type: cell-based; details: 4-day cycle
Description: as §1

[6] = test system: DAOY human glioma cells (high MGMT level); test: Colony formation assay, DAOY cells; type: cell-based; details: 4-day cycle
Description: as §1

In the case of `Cn1nnc2c(C(N)=O)ncn2c1=O` [TMZ, 3,4-dihydro-3-methyl-4-oxoimidazo[5,1-d]-as-tetrazine-8-carboxamide], the “% Inhibition compared to untreated cells” value ([1]; 4-day cycle, continuous daily dosing Day 1-4 (¼ total TMZ/day), total TMZ 16 μg) is reported as 7%, the “% Inhibition compared to untreated cells” value ([1]; 4-day cycle, single pulse dosing Day 1, total TMZ 16 μg) is reported as 66% and the “% Inhibition compared to untreated cells” value ([1]; 4-day cycle, single pulse dosing Day 1, total TMZ 31 μg) is reported as 87%. For the same molecule, the “% Inhibition compared to untreated cells” value ([1]; 4-day cycle, single pulse dosing Day 1, total TMZ 62 μg) was 84%, the “% Inhibition compared to untreated cells” value ([1]; 8-day cycle, continuous daily dosing Day 1-8 (⅛ total TMZ/day), total TMZ 31 μg) was −5% and the “% Inhibition compared to untreated cells” value ([1]; 8-day cycle, dosing for 2 consecutive days Day 1, Day 2 (½ total TMZ/day), total TMZ 31 μg) was 45%. The “% Inhibition compared to untreated cells” value ([1]; 8-day cycle, dosing for 2 consecutive days Day 1, Day 2 (½ total TMZ/day), total TMZ 62 μg) was 92%, the “% Inhibition compared to untreated cells” value ([1]; 8-day cycle, dosing for 2 consecutive days Day 1, Day 2 (½ total TMZ/day), total TMZ 124 μg) was 98% and the “% Inhibition compared to untreated cells” value ([1]; 8-day cycle, intermittent dosing for 2 days Day 1, Day 5 (½ total TMZ/day), total TMZ 31 μg) was 78%. The “% Inhibition compared to untreated cells” value ([1]; 8-day cycle, intermittent dosing for 2 days Day 1, Day 5 (½ total TMZ/day), total TMZ 62 μg) was 98%, the “% Inhibition compared to untreated cells” value ([1]; 8-day cycle, intermittent dosing for 2 days Day 1, Day 5 (½ total TMZ/day), total TMZ 124 μg) was 99% and the “% Inhibition compared to tumor treated with vehicle” value (from here on “% Inhibition … with vehicle”) ([2]; continuous daily dosing Day 1-12, 3 mpk per pulse, total 36 mpk, dose intensity 1, i.p.) was 37%. For the same molecule, the “% Inhibition … with vehicle” value ([2]; dosing for 4 consecutive days Day 1-4, 18 mpk per pulse, total 72 mpk, dose intensity 2, i.p.) was 88%, the “% Inhibition … with vehicle” value ([2]; dosing for 4 consecutive days Day 1-4, 36 mpk per pulse, total 144 mpk, dose intensity 4, i.p.) was 94% and the TGI ([2]; 4-day treatment schedule) was 88%. For the same molecule, the TGI ([2]; 12-day schedule) was 50%, the “% Inhibition … with vehicle” value ([3]; continuous daily dosing Day 1-15, 12 mpk per pulse, total 180 mpk, dose intensity 1, i.p.) was 34% and the “% Inhibition … with vehicle” value ([3]; dosing for 5 consecutive days Day 1-5, 54 mpk per pulse, total 270 mpk, dose intensity 1.5, i.p.) was 29%. For the same molecule, the “% Inhibition … with vehicle” value ([3]; dosing for 5 consecutive days Day 1-5, 81 mpk per pulse, total 405 mpk, dose intensity 2.25, i.p.) was 68%, the “% Inhibition … with vehicle” value ([3]; intermittent dosing Day 1, 4, 7, 10, 13, 54 mpk per pulse, total 270 mpk, dose intensity 1.5, i.p.) was 58% and the “% Inhibition … with vehicle” value ([3]; intermittent dosing Day 1, 4, 7, 10, 13, 81 mpk per pulse, total 405 mpk, dose intensity 2.25, i.p.) was 73%. For the same molecule, the “% Inhibition … with vehicle” value ([4]; continuous dosing Day 1-30, 12 mpk per pulse, total 360 mpk, dose intensity 1, i.p.) was 66%, the “% Inhibition … with vehicle” value ([4]; dosing for 5 consecutive days Day 1-5, Day 16-20, 54 mpk per pulse, total 540 mpk, dose intensity 1.5, i.p.) was 118% and the “% Inhibition … with vehicle” value ([4]; dosing for 5 consecutive days Day 1-5, Day 16-20, 81 mpk per pulse, total 810 mpk, dose intensity 2.25, i.p.) was 124%. The “% Inhibition … with vehicle” value ([4]; intermittent dosing Day 1, 4, 7, 10, 13, 16, 19, 22, 25, 28, 54 mpk per pulse, total 540 mpk, dose intensity 1.5, i.p.) was 85%, the “% Inhibition … with vehicle” value ([4]; intermittent dosing Day 1, 4, 7, 10, 13, 16, 19, 22, 25, 28, 81 mpk per pulse, total 810 mpk, dose intensity 2.25, i.p.) was 117% and the “% Inhibition compared to untreated cells” value ([5]; continuous daily dosing Day 1-4 (¼ total TMZ/day), total TMZ 62 μg) was 17.4%. For the same molecule, the “% Inhibition compared to untreated cells” value ([5]; single pulse dosing Day 1, total TMZ 62 μg) was 76%, the “% Inhibition compared to untreated cells” value ([5]; single pulse dosing Day 1, total TMZ 124 μg) was 88% and the “% Inhibition compared to untreated cells” value ([5]; single pulse dosing Day 1, total TMZ 249 μg) was 96%. For the same molecule, the “% Inhibition compared to untreated cells” value ([6]; continuous daily dosing Day 1-4 (¼ total TMZ/day), total TMZ 93 μg) was −8%, the “% Inhibition compared to untreated cells” value ([6]; single pulse dosing Day 1, total TMZ 93 μg) was −37% and the “% Inhibition compared to untreated cells” value ([6]; single pulse dosing Day 1, total TMZ 186 μg) was 20%. The “% Inhibition compared to untreated cells” value ([6]; single pulse dosing Day 1, total TMZ 373 μg) was 75%.
